Measurements from the supplement of paper PMC10307832.

Legend:
Experiment in all cases: relative viability (nuclei count vs DMSO), 5 days (fraction); higher = more cells survive
NCI-H2009 = system: NCI-H2009
Outline: (§1)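 Each reported value is a median over duplicate plates. It expresses relative viability: treated-well nuclei count divided by vehicle-well nuclei count. Lung cancer cell lines in 1536-well plates were dosed by pin tool a day after seeding, alone with one drug or with a fixed anchor-drug dose plus five library-drug doses (not always all listed) in √10 steps, and nuclei were counted after 5 days.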

NCI-H2023 = system: NCI-H2023
Outline: as §1

HARA = system: HARA
Outline: as §1

NCI-H650 = system: NCI-H650
Outline: as §1

H3255 = system: H3255
Outline: as §1

LOU-NH91 = system: LOU-NH91
Outline: as §1

NCI-H1650 = system: NCI-H1650
Outline: as §1

NCI-H838 = system: NCI-H838
Outline: as §1

NCI-H2087 = system: NCI-H2087
Outline: as §1

NCI-H1651 = system: NCI-H1651
Outline: as §1

EPLC-272H = system: EPLC-272H
Outline: as §1

SW 1573 = system: SW 1573
Outline: as §1

NCI-H1975 = system: NCI-H1975
Outline: as §1

NCI-H2085 = system: NCI-H2085
Outline: as §1

NCI-H727 = system: NCI-H727
Outline: as §1

LC-2-ad = system: LC-2-ad
Outline: as §1

NCI-H2228 = system: NCI-H2228
Outline: as §1

NCI-H2170 = system: NCI-H2170
Outline: as §1

UMC-11 = system: UMC-11
Outline: as §1

PC-3 [JPC-3] = system: PC-3 [JPC-3]
Outline: as §1

NCI-H23 = system: NCI-H23
Outline: as §1

Compound: Cc1csc(=NC2CCCCC2)n1/N=C/c1ccc(O)c(O)c1O [MIM1] + CS(=O)(=O)CCNCc1ccc(-c2ccc3ncnc(Nc4ccc(OCc5cccc(F)c5)c(Cl)c4)c3c2)o1 [Lapatinib] (partner 2 µM)
- relative viability (NCI-H2009; first compound 0.2 µM): 1.04
- relative viability (NCI-H2009; first compound 0.6325 µM): 0.876
- relative viability (NCI-H2009; first compound 2 µM): 1.1
- relative viability (NCI-H2009; first compound 6.325 µM): 0.449
- relative viability (NCI-H2009; first compound 20 µM): 0.133
- relative viability (NCI-H2023; first compound 0.2 µM): 0.947
- relative viability (NCI-H2023; first compound 0.6325 µM): 0.716
- relative viability (NCI-H2023; first compound 2 µM): 0.683
- relative viability (NCI-H2023; first compound 6.325 µM): 0.253
- relative viability (NCI-H2023; first compound 20 µM): 0.0707
- relative viability (HARA; first compound 0.2 µM): 0.615
- relative viability (HARA; first compound 0.6325 µM): 0.662
- relative viability (HARA; first compound 2 µM): 0.821
- relative viability (HARA; first compound 6.325 µM): 0.55
- relative viability (HARA; first compound 20 µM): 0.128
- relative viability (NCI-H650; first compound 0.2 µM): 0.976
- relative viability (NCI-H650; first compound 0.6325 µM): 0.737
- relative viability (NCI-H650; first compound 2 µM): 0.897
- relative viability (NCI-H650; first compound 6.325 µM): 0.791
- relative viability (NCI-H650; first compound 20 µM): 0.235
- relative viability (H3255; first compound 0.2 µM): 0.274
- relative viability (H3255; first compound 0.6325 µM): 0.208
- relative viability (H3255; first compound 2 µM): 0.242
- relative viability (H3255; first compound 6.325 µM): 0.22
- relative viability (H3255; first compound 20 µM): 0.198
- relative viability (LOU-NH91; first compound 0.2 µM): 0.744
- relative viability (LOU-NH91; first compound 0.6325 µM): 0.8
- relative viability (LOU-NH91; first compound 2 µM): 0.645
- relative viability (LOU-NH91; first compound 6.325 µM): 0.625
- relative viability (LOU-NH91; first compound 20 µM): 0.362
- relative viability (NCI-H1650; first compound 0.2 µM): 0.788
- relative viability (NCI-H1650; first compound 0.6325 µM): 0.566
- relative viability (NCI-H1650; first compound 2 µM): 0.565
- relative viability (NCI-H1650; first compound 6.325 µM): 0.204
- relative viability (NCI-H1650; first compound 20 µM): 0.148
- relative viability (NCI-H838; first compound 0.2 µM): 0.941
- relative viability (NCI-H838; first compound 0.6325 µM): 0.885
- relative viability (NCI-H838; first compound 2 µM): 0.815
- relative viability (NCI-H838; first compound 6.325 µM): 0.672
- relative viability (NCI-H838; first compound 20 µM): 0.183
- relative viability (NCI-H2087; first compound 0.2 µM): 1.04
- relative viability (NCI-H2087; first compound 0.6325 µM): 0.85
- relative viability (NCI-H2087; first compound 2 µM): 0.998
- relative viability (NCI-H2087; first compound 6.325 µM): 0.602
- relative viability (NCI-H2087; first compound 20 µM): 0.511
- relative viability (NCI-H1651; first compound 0.2 µM): 0.883
- relative viability (NCI-H1651; first compound 0.6325 µM): 0.854
- relative viability (NCI-H1651; first compound 2 µM): 0.95
- relative viability (NCI-H1651; first compound 6.325 µM): 0.655
- relative viability (NCI-H1651; first compound 20 µM): 0.274
- relative viability (EPLC-272H; first compound 0.2 µM): 0.884
- relative viability (EPLC-272H; first compound 0.6325 µM): 0.886
- relative viability (EPLC-272H; first compound 2 µM): 0.722
- relative viability (EPLC-272H; first compound 6.325 µM): 0.792
- relative viability (EPLC-272H; first compound 20 µM): 0.528
- relative viability (SW 1573; first compound 0.2 µM): 1.07
- relative viability (SW 1573; first compound 0.6325 µM): 1.15
- relative viability (SW 1573; first compound 2 µM): 1.08
- relative viability (SW 1573; first compound 6.325 µM): 0.993
- relative viability (SW 1573; first compound 20 µM): 0.83
- relative viability (NCI-H1975; first compound 0.2 µM): 0.789
- relative viability (NCI-H1975; first compound 0.6325 µM): 0.796
- relative viability (NCI-H1975; first compound 2 µM): 0.875
- relative viability (NCI-H1975; first compound 6.325 µM): 0.537
- relative viability (NCI-H1975; first compound 20 µM): 0.395
- relative viability (NCI-H2085; first compound 0.2 µM): 0.799
- relative viability (NCI-H2085; first compound 0.6325 µM): 0.796
- relative viability (NCI-H2085; first compound 2 µM): 0.772
- relative viability (NCI-H2085; first compound 6.325 µM): 0.652
- relative viability (NCI-H2085; first compound 20 µM): 0.537
- relative viability (NCI-H727; first compound 0.2 µM): 0.852
- relative viability (NCI-H727; first compound 0.6325 µM): 0.969
- relative viability (NCI-H727; first compound 2 µM): 0.733
- relative viability (NCI-H727; first compound 6.325 µM): 0.745
- relative viability (NCI-H727; first compound 20 µM): 0.257
- relative viability (LC-2-ad; first compound 0.2 µM): 0.938
- relative viability (LC-2-ad; first compound 0.6325 µM): 0.506
- relative viability (LC-2-ad; first compound 2 µM): 0.888
- relative viability (LC-2-ad; first compound 6.325 µM): 0.352
- relative viability (LC-2-ad; first compound 20 µM): 0.132
- relative viability (NCI-H2228; first compound 0.2 µM): 1.25
- relative viability (NCI-H2228; first compound 0.6325 µM): 0.735
- relative viability (NCI-H2228; first compound 2 µM): 1.22
- relative viability (NCI-H2228; first compound 6.325 µM): 0.346
- relative viability (NCI-H2228; first compound 20 µM): 0.247
- relative viability (NCI-H2170; first compound 0.2 µM): 0.282
- relative viability (NCI-H2170; first compound 0.6325 µM): 0.294
- relative viability (NCI-H2170; first compound 2 µM): 0.26
- relative viability (NCI-H2170; first compound 6.325 µM): 0.267
- relative viability (NCI-H2170; first compound 20 µM): 0.258
- relative viability (UMC-11; first compound 0.2 µM): 1.22
- relative viability (UMC-11; first compound 2 µM): 1.17
- relative viability (UMC-11; first compound 6.325 µM): 0.664
- relative viability (UMC-11; first compound 20 µM): 0.181
- relative viability (PC-3 [JPC-3]; first compound 0.2 µM): 0.486
- relative viability (PC-3 [JPC-3]; first compound 0.6325 µM): 0.505
- relative viability (PC-3 [JPC-3]; first compound 2 µM): 0.424
- relative viability (PC-3 [JPC-3]; first compound 6.325 µM): 0.45
- relative viability (PC-3 [JPC-3]; first compound 20 µM): 0.46
- relative viability (NCI-H23; first compound 0.2 µM): 1.13
- relative viability (NCI-H23; first compound 2 µM): 0.734
- relative viability (NCI-H23; first compound 6.325 µM): 0.88
- relative viability (NCI-H23; first compound 20 µM): 0.177
